# According to US7858658B2, “Fluoro- and trifluoroalkyl-containing heterocyclic sulfonamide inhibitors of beta amyloid production and derivatives thereof” (Wyeth LLC, priority 2003, dated 2010):
# Where “and” joins values, the source holds several entries; their conditions need not be identical. Identical values can stand only once.
# Experiments:
# [1] = test system: amyloid precursor protein (APP) proteolysis; experiment: Repressor Release Assay (RRA); assay type: cell-based; conditions: all compounds tested at 20 μg/mL; for fold induction at 20 µg/mL: read-out: RRA data: fold increase of APPI (luciferase activity over diluent control)
# Experimental: The beta amyloid inhibitory activity of many of the compounds of the present invention has been determined using the Repressor Release Assay (RRA). See, Table 5 below. A compound is considered active in RRA if it leads to at least a 1.5 fold increase in luciferase activity at 20 μg/mL and is non-toxic.
# The compounds generated as described in the Examples above are tested in the RRA in accordance with published techniques [Shuey, D. J., Sheiffele, P., Jones, D., Cockett, M. I., and Quinet, E. M. (1999), “Repressor release: a useful tool for monitoring amyloid precursor protein (APP) proteolysis in mammalian cells”, Society for Neuroscience Abstracts, Vol. 25, 29th Annual Meeting of Society for Neuroscience, Miami Beach, Fla., Oct. 23-28, 1999]. Briefly, this assay is performed as follows.
# CHO-K1 cells are cultured in whole DMEM media (DMEM—High Glucose with 10% fetal bovine serum, 1% Non-essential Amino Acids, and 1% Penicillin-Streptomycin) at 37° C. with 5% CO2. Two million cells are plated into 10-cm dishes 24 hrs prior to transfection.
# Transient transfections are completed as recommended by Gibco BRL using their Lipofectamine Plus® system. First, 6 μg of pRSVO-luc and 6 μg of APP-lacI construct DNA are added to 460 μL Opti-Mem transfection media and incubated with the 30 μL Plus® reagent for 15 minutes. Then, a lipid mixture of 40 μL Lipofectamine Plus® reagent and 460 μL Opti-Mem transfection media is incubated with the DNA-Plus reagent mixture for 15 minutes. During the DNA-lipid incubation, the CHO-K1 cells are washed once and covered in 5.0 mL DMEM media without Penicillin-Streptomycin. The DNA-lipid preparation is then layered onto these cells and incubated at 37° C. overnight.
# One and one half million transfected cells per well (100 μL total volume) are plated into sterile, opaque Packard 96-well Cultur-Plates™ in clear DMEM whole media (DMEM—without phenol red) and incubated at 37° C. with 5% CO2 for 3-5 hours.
# Compounds are diluted using two different protocols; one protocol is used for compounds supplied neat (weighed powder in vial) and the other protocol is used for compounds supplied in solution (20 mM in DMSO in 96-well plates). For both protocols, 25 mM Hepes and 25 mM Hepes/1% DMSO are prepared fresh to be used as diluent. The Hepes/DMSO is used as the diluent control on all experimental plates.
# The following table depicts the steps for compound dilution (please note that the last step is the addition of compound to cells/media in tissue culture plate):
# Because some compounds arrive in 96-well format at 20 mM, the following represents the protocol for their dilution (note that an average molecular weight of these compounds was used to calculate these dilutions and as above, the last step is the addition of compound to cells/media in tissue culture plate):
# Once compounds are diluted, they are applied in duplicate on cells in tissue culture plates (prepared above). Cells are incubated with compound at 37° C. with 5% CO2 for an additional 36-48 hours.
# Luciferase assays (the LucLite® reagent, Packard) are performed and are read on a Packard TopCount® instrument. Media is removed from each 96-well plate and replaced with 100 μL PBS per well (with Mg^2+ and Ca^2+). An equal volume (100 μL) of the LucLite® lysis/substrate buffer is added to each well and the plates are sealed and mixed in the dark on a rotary shaker for about 15 to about 30 minutes at room temperature. Luciferase readings are then taken on the TopCount® instrument. Measurements are expressed as relative light units (RLU) and are calculated and analyzed in the MS Excel® program as follows.
# A compound is considered active in RRA if it leads to at least a 1.5 fold increase in luciferase activity at 20 μg/mL and is non-toxic, as determined by loss of signal (≦0.75 fold increase). Fold increase is the amount of luciferase activity (measured in relative light units) over diluent control. SEM represents the standard error of the mean for fold increase (not shown).
# [2] = test system: beta amyloid 40; experiment: Aβ40/42 ELISA Assay, Aβ40; assay type: cell-based; conditions: CHO cells carrying the APP-REP-NL plasmid, 22 hours
# Experimental: (§1) Compounds are diluted from DMSO stocks to 2 μM and below in a cell culture medium. Compounds are then applied to CHO cells carrying the APP-REP-NL plasmid [Sudhir et. al, J. Biolog. Chem. 267:25602-25608 (1992)] for a period of 22 hours. After the conditioning period, medium is collected, diluted in assay buffer containing protein, and samples, controls, and synthetic peptide standards are incubated on a prepared ELISA plate. Using a sandwich ELISA with antibodies specifically directed against the carboxyl terminus of beta amyloid 40 or 42 [analogous to the method reported by Haugabook et al., J. Neurosci. Methods 108:171-179 (2001) but using goat anti-mouse IgG1 (source: Southern Biotech) as the anchor, 6E10 as the capture antibody (Source: SENETEK), rabbit antiAβ40 and antiAβ42 (source: QCB) and APL-donkey anti-rabbit IgG (H+L, source: Southern Biotech) as the detection antibody], the effect of the compound treatment on the cellular production of extracellular beta amyloid is quantified. Cells treated with compound are subsequently incubated in cell culture medium containing […]. After a short incubation period, MTS/medium containing plates are read in a spectrophotometer to determine the extent to which compound toxicity affected the cell's metabolism and ability to synthesize beta amyloid. […]
# [3] = test system: beta amyloid 42; experiment: Aβ40/42 ELISA Assay, Aβ42; assay type: cell-based; conditions: CHO cells carrying the APP-REP-NL plasmid, 22 hours
# Experimental: as §1
# [4] = Phase 1 and 2 mouse liver microsome metabolism; assay type: in vitro ADME; conditions: liver microsomes, read-out: half-life (metabolic stability)
# [5] = in vitro; conditions: rat, microsomes
# [6] = Phase 1 and 2 dog liver microsome metabolism; assay type: in vitro ADME; conditions: liver microsomes, read-out: half-life (metabolic stability)
# [7] = Phase 1 and 2 rat liver microsome metabolism; assay type: in vitro ADME; conditions: liver microsomes, read-out: half-life (metabolic stability)
# [8] = Phase 1 and 2 human liver microsome metabolism; assay type: in vitro ADME; conditions: liver microsomes, read-out: half-life (metabolic stability)
# [9] = mouse, microsomes
Structure (SMILES),fold induction at 20 µg/mL [1],RRA data: fold increase of APPI (luciferase activity over diluent control) [1],further results
"O=S(=O)(NC(CO)C1CC2C(C1)C2(F)F)c1ccc(Cl)s1 (stereo not shown) [Example 15, 5-Chloro-N-[1-(6,6-difluorobicyclo[3.1.0]hex-3-yl)-2-hydroxyethyl]thiophene-2-sulfonamide]",4.7,,
"O=S(=O)(NC(CO)CC(F)(F)F)c1ccc(Cl)s1 (stereo not shown) [Example 40, 5-chloro-(3,3,3-trifluoro-1-hydroxymethyl-propyl)-thiophene-2-sulfonamide]",3.8,,
C[C@H](NC(=O)Cc1cc(F)cc(F)c1)C(=O)N[C@H](C(=O)OC(C)(C)C)c1ccccc1 [DAPT],,18.5-28.1 fold increase,EC50 [2]: 171 nM; EC50 [3]: 128 nM
"O=S(=O)(NC(CO)C(C(F)(F)F)C(F)(F)F)c1ccc(Cl)s1 (stereo not shown) [Example 4, 5′-Chloro-N-[3,3,3-trifluoro-2-(trifluoromethyl)-1-(hydroxymethyl)propyl]thiophene-2′-sulfonamide]",,3.7 fold increase,
"CC(=O)[C@@H](NS(=O)(=O)c1ccc(Cl)s1)[C@H](C)CC(F)(F)F [Example 17, N-[(1S,2R)-1-Acetyl-4,4,4-trifluoro-2-methylbutyl]-5-chlorothiophene-2-sulfonamide]",3.6,,
"C[C@H](CC(F)(F)F)[C@@H](CO)NS(=O)(=O)c1ccc(Cl)s1 [Example 1, 5-Chloro-N-[(1S,2R)-4,4,4-trifluoro-1-(hydroxymethyl)-2-methylbutyl]thiophene-2-sulfonamide]",3.2,,melting point: 132 to 133 °C and 136 to 137 °C; half-life [4]: 10 min; half-life [5]: ~193 min; half-life [6]: 31 min; half-life [7]: 14 min; half-life [8]: 22 min
"O=S(=O)(NC(CO)CCC(F)(F)F)c1ccc(Cl)s1 (stereo not shown) [Example 7, 5-Chloro-N-[4,4,4-trifluoro-1-(hydroxymethyl)butyl]thiophene-2-sulfonamide]",3.9,,
"C[C@H](CC(F)(F)F)[C@H](NS(=O)(=O)c1ccc(Cl)s1)[C@@H](C)O [Example 9, 5-Chloro-N-{(1S,2R)-4,4,4-trifluoro-1-[(1R)-1-hydroxyethyl]-2-methylbutyl}thiophene-2-sulfonamide]",2.8,,
"CC[C@H](CC(F)(F)F)[C@@H](CO)NS(=O)(=O)c1ccc(Cl)s1 [Example 2, 5-Chloro-N-[(1S,2R)-2-ethyl-4,4,4-trifluoro-1-(hydroxymethyl)butyl]thiophene-2-sulfonamide]",5.4,,melting point: 128 to 129 °C
"CC[C@@H](CC(F)(F)F)[C@@H](CO)NS(=O)(=O)c1sc2ccc(Cl)cc2c1C [Example 11, (2S,3S)-2-(5-Chloro-3-methylbenzo[b]thiophene-2-sulfonyl)-amido-5,5,5-trifluoro-3-ethyl-pentan-1-ol]",,4.2 fold increase,
"C[C@H](O)[C@@H](NS(=O)(=O)c1ccc(Cl)s1)[C@H](C)CC(F)(F)F [Example 8, 5-Chloro-N-{(1S,2R)-4,4,4-trifluoro-1-[(1S)-1-hydroxyethyl]-2-methylbutyl}thiophene-2-sulfonamide]",2.8,,
"C[C@H](CC(F)(F)F)[C@H](NS(=O)(=O)c1ccc(Cl)s1)C(C)(C)O [Example 18, 5-Chloro-N-[(1S,2R)-4,4,4-trifluoro-1-(1-hydroxy-1-methylethyl)-2-methylbutyl]thiophene-2-sulfonamide]",2.9,,
"CC[C@@H](CC(F)(F)F)[C@H](CO)NS(=O)(=O)c1ccc(Cl)s1 [Example 6, 5-Chloro-N-[(1R,2S)-2-ethyl-4,4,4-trifluoro-1-(hydroxymethyl)butyl]thiophene-2-sulfonamide]",4.2,,
"O=S(=O)(N[C@H](CO)C(C(F)(F)F)C(F)(F)F)c1ccc(Cl)s1 [Example 5, 5′-Chloro-N-[3,3,3-trifluoro-2-(trifluoromethyl)-1-S-(hydroxymethyl)propyl]thiophene-2′-sulfonamide]",,3.8 fold increase,half-life (metabolic stability) [9]: 46 min
"CC[C@H](CC(F)(F)F)[C@H](NS(=O)(=O)c1ccc(Cl)s1)C(C)O (stereo partly drawn) [Example 3, 5′-Chloro-N-[(1S,2R)-2-ethyl, 4,4,4-trifluoro-1-(1-hydroxyethyl)butyl]thiophene-2′-sulfonamide]",,4.3 fold increase,
"C[C@H](CC(F)(F)F)[C@@H](C=O)NS(=O)(=O)c1ccc(Cl)s1 [Example 16, 5-Chloro-N-[(1S,2R)-4,4,4-trifluoro-1-formyl-2-methylbutyl]thiophene-2-sulfonamide]",3.9,,
"O=S(=O)(NC(CO)C1CCC(F)(F)CC1)c1ccc(Cl)s1 (stereo not shown) [Example 14, 5-Chloro-N-[1-(4,4-difluorocyclohexyl)-2-hydroxyethyl]thiophene-2-sulfonamide]",6.2,,
"C[C@@H](CC(F)(F)F)[C@@H](CO)NS(=O)(=O)c1ccc(Cl)s1 [Example 10, 5-Chloro-N-[(1S,2S)-4,4,4-trifluoro-1-(hydroxymethyl)-2-methylbutyl]thiophene-2-sulfonamide]",5.2,,melting point: 99 to 100 °C
"C[C@@H](O)[C@@H](NS(=O)(=O)c1ccc(Cl)s1)C(C(F)(F)F)C(F)(F)F [Example 41, 5-Chloro-N-[(1S)-3,3,3-trifluoro-1-[(1R)-1-hydroxyethyl]-2-(trifluoromethyl)propyl]thiophene-2-sulfonamide]",6.2,,
"Cc1nn(C)c(Cl)c1S(=O)(=O)N[C@H](CO)[C@H](CC(F)(F)F)c1ccccc1 [Example 12, (2S,3R)-2-(5-Chloro-1,3-dimethyl-1H-pyrazole-4-sulfonyl)-amido-5,5,5-trifluoro-3-phenyl-pentan-1-ol]",,1.6 fold increase,
